Measured values taken from patent publication EP1180991B1, “GAMBOGIC ACID DERIVATIVES AS ACTIVATORS OF CASPASES AND INDUCERS OF APOPTOSIS” (Cytovia, Inc., priority 1999, dated 2000).

How the values were obtained:
Assay type in all cases: cell-based, human
T47D cells [1] = assay: Dose response of caspase activation, cancer cells versus normal fibroblasts (Example 96); conditions: T47D versus MRC-5; 2 h dose response (Fig. 4)
Method: T47D cells and MRC-5 cells were maintained and harvested as described in Example 90. […] To determine the dose response of gambogic acid for inducing caspase activity, 5 µl of 20 µM gambogic acid in RPMI media was added to wells in triplicates. Two-fold serial dilutions were made for the lower concentrations. After incubation for 2 h, the samples were removed from the 5% CO2-95% humidity incubator and caspase activity was determined by addition of a fluorogenic substrate as described in Example 90.

Jurkat T leukemia cells = assay: Apoptotic morphology, phase-contrast microscope (Example 95); conditions: 10 µM
Method: Jurkat T leukemia cells were grown in RPMI 1640 media (Life Technologies, Inc.) + 10% FCS (Sigma Chemical Company) in a 5% CO2-95% humidity incubator at 37° C, and maintained at a cell density between 4 and 8 x 10^5 cells/ml. Cells were harvested at 200xg and resuspended at 1-2 x 10^6 cells/ml into RPMI 1640 media + 10% FCS, and 3 ml of the cells was dispensed in each of three wells of a 6-well plate. One of the wells was treated with 10 µM caspase inhibitor cbz-Val-Asp-fink (Cytovia, Inc.; WO99/18781) and the plate was incubated at 37° C in a 5% CO2-95% humidity incubator for 1 h prior to addition of gambogic acid. The wells with and without the caspase inhibitor were treated with 10 µM gambogic acid. The third well was treated with solvent (control cells). The plate was incubated at 37° C in a 5% CO2-95% humidity incubator.
At 30 min. after addition of gambogic acid an aliquot of cells from each well was taken into the capillary slides and observed under a phase-contrast microscope.

T47D cells [2] = assay: Nuclear fragmentation, Syto16 DNA stain (Example 94); conditions: 10 µM, 24 h (Fig. 2B)
Method: T47D cells were grown and plated as described in Example 90. The cells were treated with 10 µM of gambogic acid and the plate was incubated for up to 24 h at 37°C in a 5% CO2-95% humidity incubator. At 24 h, the cells were incubated with a live cell nucleic acid stain, Syto16 (Molecular Probes) which stains DNA. After 2 washes with PBS, cells were examined under a fluorescence microscope. […] Nuclear fragmentation is a clear indicator of cellular apoptosis.

PC-3 = assay: Caspase cascade activation assay (Example 90); conditions: PC-3, 24 h incubation
Method: (§1) Human breast cancer cell lines T-47D and ZR-75-1, human prostate cancer cell line PC-3, human leukemia cancer cell line HL-60 and human non-transformed fibroblast cell line MRC-5 cells were grown according to media component mixtures designated by The American Type Culture Collection + 10% FCS (Life Technologies, Inc.), in a 5% CO2 -95% humidity incubator at 37° C. T-47D, ZR-75-1 and PC-3 cells were maintained at a cell density between 30 and 80% confluency and for HL-60 at a cell density of 0.1 to 0.6 x 10^6 cells/ml. Cells were harvested at 600xg and resuspended at 0.65 x 10^6 cells/ml into appropriate media + 10% FCS. […] The samples were mixed by agitation and incubated at room temperature.
(§2) The EC50 (nM) was determined by a sigmoidal dose-response calculation (Prism 2.0, GraphPad Software Inc.). Caspase Activity and Potency

ZR-75-1 = assay: Caspase cascade activation assay (Example 90); conditions: ZR-75-1, 24 h incubation
Method: as §1, §2

HL-60 = assay: Caspase cascade activation assay (Example 90); conditions: HL-60, 24 h incubation
Method: as §1, §2

T-47D = assay: Caspase cascade activation assay (Example 90); conditions: T-47D, 24 h incubation
Method: as §1, §2

MRC-5 = assay: Caspase cascade activation assay (Example 90); conditions: MRC-5 non-transformed fibroblasts, 24 h incubation
Method: as §1, §2

HL-60 cells = assay: PARP cleavage, western blot (Example 98); conditions: 2.5 µM, 2 h (Fig. 5B)
Method: (§3) Cleavage of the enzyme poly(ADP)ribose polymerase (PARP) by caspase-3 and related proteases is considered to be one of the molecular hallmarks of caspase-mediated apoptosis. Therefore, the ability of gambogic acid to induce PARP cleavage in four different human tumor cell lines (Jurkat cells, HL-60 cells, T47D cells and PC3 cells) was determined.
(§4) Cells were cultured in complete growth medium containing 10% FBS and treated with gambogic acid at concentrations of 2.5 µM or 5 µM for 2 to 4 h. Control cultures were treated with a drug vehicle (DMSO), or the well-characterized apoptosis inducer, staurosporine. At the end of the apoptosis induction period, the cells were harvested, washed once with PBS, quick-frozen on dry ice, and stored at -80° C. The cells were then lysed in a standard immunoblotting lysis buffer and samples of the lysates were electrophoresed on 4% to 20% gradient polyacrylamide gels. The proteins in the gels were then transferred to PVDF membranes and probed with a commercially-available rabbit polyclonal antibody to PARP.

Jurkat cells = assay: PARP cleavage, western blot (Example 98); conditions: 2.5 µM, 2 h (Fig. 5A)
Method: as §3, §4

T47D cells [3] = assay: PARP cleavage, western blot (Example 98)
Method: as §3
as §4, with “Cells were cultured in complete growth medium containing 10% FBS and treated with gambogic acid at concentrations of 2.5 µM or 5 µM for 2 to 4 h.” left out

PC3 cells = assay: PARP cleavage, western blot (Example 98)
Method: as §3
as §4, with “Cells were cultured in complete growth medium containing 10% FBS and treated with gambogic acid at concentrations of 2.5 µM or 5 µM for 2 to 4 h.” left out

[4] = Homo sapiens, caspase activation, read-out: EC50
[5] = 0.16 to 10 µM final, net RFU ratio to control

## CC(C)=CCC[C@]1(C)C=Cc2c(O)c3c(c(CC=C(C)C)c2O1)O[C@]12C(=C[C@@H]4C[C@H]1C(C)(C)O[C@@]2(C/C=C(/C)C(=O)O)C4=O)C3=O [Example 1, Gambogic Acid]
T47D cells [1]
  sensitivity to induction of caspase activity: more sensitive to induction of caspase activity than a normal fibroblast cell line MRC-5
Jurkat T leukemia cells; 30 min (Fig. 3B)
  apoptotic morphology: blebbing and cellular fragmentation
Jurkat T leukemia cells; 30 min, with 10 µM caspase inhibitor cbz-Val-Asp-fink (Fig. 3C)
  apoptotic morphology in the presence of caspase inhibitor: prevented the morphological changes
T47D cells [2]
  nuclear fragmentation: condensed and fragmented nuclei in a large population of the cells
PC-3; [4]
  EC50: 1.5 µM
PC-3; [5]
  caspase activity (Ratio): 2.1
ZR-75-1; [4]
  EC50: 1.4 µM
ZR-75-1; [5]
  caspase activity (Ratio): 11.9
HL-60; [5]
  caspase activity (Ratio): 6.3
HL-60; [4]
  EC50: 0.4 µM
T-47D; Homo sapiens, T47D, caspase activation, read-out: EC50
  EC50: 0.56 µM
T-47D; [5]
  caspase activity (Ratio): 13.6
MRC-5; Homo sapiens, MRC5, caspase activation, read-out: EC50
  EC50: 1.41 µM
MRC-5; [5]
  caspase activity (Ratio): 17.8
HL-60 cells
  PARP cleavage: almost complete PARP cleavage
Jurkat cells
  PARP cleavage: almost complete PARP cleavage
T47D cells [3]; 2.5 µM and 5 µM, 4 h (Fig. 5C)
  PARP cleavage: almost complete PARP cleavage
T47D cells [3]; 2.5 µM, 2 h (Fig. 5C)
  PARP cleavage: moderate induction of PARP cleavage
T47D cells [3]; 5 µM, 2 h (Fig. 5C)
  PARP cleavage: almost complete PARP cleavage
PC3 cells; 2.5 µM and 5 µM, 2 h (Fig. 5D)
  PARP cleavage: neither concentration (2.5 µM and 5 µM) of drug was effective
PC3 cells; 5 µM, 4 h (Fig. 5D)
  PARP cleavage: a moderate amount of PARP cleavage product
